The values below come from patent US20210023089A1, “Compositions Useful for Treating Herpes Simplex Keratitis, and Methods Using Same” (priority 2013, published 2021).

The subject of assay [1] is HSV-1. The experiment in a line: Time-of-addition of KU-55933 in HSV-1 infected hTCEpi cells (Western blot gC, qRT-PCR genome). Format: cell-based. To be noted: MOI 1, KU-55933 10 μM, read at 8 hpi. On the procedure:
Standard protocol was followed for Western blot analysis. Cell lysates were collected in Laemmli buffer, vortexed, and boiled at 95° C. for 5 min. Protein concentrations were measured by reducing agent-compatible BCA assay. SDS-PAGE was followed by transfer onto a PVDF membrane, which was then blocked in 5% BSA. Primary antibody staining was performed overnight and blots were visualized on film or with the Odyssey near-infrared system (LI-COR, Lincoln, Nebr.). Primary antibodies against the following proteins were used: ICP0 (Virusys Corporation, Taneytown, Md.), ICP4, PML, and nucleolin (Santa Cruz Biotechnology, Santa Cruz, Calif.), ICP8, glycoproteins B and C, ATM and pATM-Ser1981 (Rockland, Gilbertsville, Pa.), Chk2 and pChk2-Thr68 (Cell Signaling, Danvers, Mass.).
Total DNA was isolated from infected cells using the DNeasy Blood & Tissue Kit (QIAGEN, Hilden, Germany). Real time quantitative PCR was performed with SYBR Green (Bio-Rad, Hercules, Calif.). Target primers for UL30 (DNA polymerase catalytic subunit) and reference primers for GAPDH were used to measure genome replication. Primer sequences were provided in Alekseev et al., 2014, Invest. Ophthalm. Vis. Sci. 55:706-715). Real time PCR data were processed using the ΔΔC(t) method.
hTCEpi, EPC2, and OKF6 are normal human epithelial cells from cornea, esophagus, and palate, respectively. […]
For orientation: In western blotting, separated proteins are transferred to a membrane and probed.

For assay [2], the system named is HSV-1. The experiment in a line: Western blot of viral proteins in HSV-1 infected hTCEpi cells. It counts as cell-based, HSV-1 (KOS strain). Particulars: MOI 0.1, 10 μM, 16 hpi. On the procedure: The following strains of HSV-1 were used: KOS, ICPO-null, HFEM, and tsB7. Subconfluent monolayers of cells were grown in six-well plates. Drug treatments were administered 45 minutes prior to infection and continued for the entire duration of each experiment. Unless indicated otherwise, KU-55933 (Batch No. 5, 99.7% purity; Tocris Bioscience, Bristol, UK) was used at 10 μM final concentration, phosphonoacetic acid (PAA) at 400 μg/mL (Sigma-Aldrich, St. Louis, Mo.), and acyclovir at 50 μg/mL (Sigma-Aldrich). KU-55933 was dissolved in dimethyl sulfoxide (DMSO), and the final concentration of DMSO in both KU-55933 and mock treatment in the in vitro and the ex vivo experiments was 0.1%.
Standard protocol was followed for Western blot analysis. Cell lysates were collected in 200 μL Laemmli buffer, vortexed, and boiled at 95° C. for 5 minutes. Protein concentrations were measured by bicinchoninic acid (BCA) assay. SDS-PAGE was followed by transfer onto a polyvinylidene difluoride (PVDF) membrane, which was then blocked in 5% BSA. […]

On to `O=c1cc(-c2cccc3c2Sc2ccccc2S3)oc(N2CCOCC2)c1` [KU-55933, 2-(morpholin-4-yl)-6-(thianthren-1-yl)-pyran-4-one], for which, in the assay on HSV-1 [1], the “viral replication, treatment administered at 1 hpi and later” value is recorded as “significantly less effect”; the “viral replication, treatment started prior to the 1 hpi timepoint” value is recorded as “notable reduction”. Also, the “levels of viral proteins (Western blot)” value in the assay on HSV-1 [2] was “pronounced decrease”.
